Laboratory results taken from patent US20230158100A1, “TREATMENT OF PANX1 ASSOCIATES DISEASES” (NURITAS LIMITED, priority 2020, published 2023).
Where two headings read alike, the source gives them in different places. No end group written: not given here. Cy5 = Cy5 cyanine dye label

Key:
[1] = cited from earlier work
lipoproteins = conditions: binding to lipoproteins; cited from earlier work
[2] = Werle and Bernkop-Schnürch 2006; cited from earlier work
IL-8 = IL-8 secretion in LPS-treated HepG2 cells; type: cell-based; conditions: peptide 5 ng/ml for 24 h, then 100 ng/mL LPS for 24 h
Procedure: FIG. 4 illustrates peptide of SEQUENCE ID NO. […] HepG2 cells were treated with peptide (5 ng/ml) for 24 h before treating with 100 ng/mL of LPS for 24 h. Data presented are the mean±SEM of at least 2 independent experiments. (*p<0.05 **p<0.01 ***p<0.001)
HepG2 cells were treated with peptide (5 ng/ml) for 24 h before treating with 100 ng/mL of LPS for 24 h. Data presented are the mean±SEM of at least two independent experiments. (*p<0.05 **p<0.01 ***p<0.001)

PANX1 [3] = test: Retrogenix cell microarray, confirmation on fixed and live cells; type: binding, human; conditions: for binding / specific interaction with PANX1: fixed HEK293 cells, 0.01 and 0.05 μg/ml, two separate expression clones
Procedure: (§1) CY5-labelled peptide (SEQUENCE ID NO. 1; (0.01 & 0.05 μg/ml) was screened for binding against fixed HEK293 Cells expressing 5528 human plasma membrane proteins. Screening was carried across two replicates and initial hits were selected and screened in more specific confirmation assay.
(§2) To confirm extracellular membrane binding of the peptide in culture, receptor screening was carried out (Retrogenix). Retrogenix's cell microarray technology was used to screen for specific cell surface target interactions of a CY5 labelled peptide (pep_HTWCFL the CY5 labelled version of SEQUENCE ID NO. 1).
(§3) Under this condition, the test peptide was screened for binding against fixed human HEK293 cells, individually expressing 5528 full-length human plasma membrane proteins and secreted proteins.
(§4) Each primary hit was then re-expressed, along with two control receptors (CD20 (MS4A1) and EGFR), and re-tested with 0.01 μg/ml and 0.05 μg/ml test peptide, equal concentrations of a control peptide, and other positive and negative control treatments. […] Among these were PANX1 (from two separate expression clones), SLC35F2 and TACR1.

α-SMA = test: Anti-fibrotic activity in human primary hepatic stellate cells (α-SMA); type: cell-based
Procedure: FIG. 5A and B illustrate peptide of SEQUENCE ID NO. […] (A) Confocal imaging of human stellate cells treated with TGF-β1 to stimulate expression of α-SMA before treatment with peptide (5 nM). (B) Quantification of α-SMA expression.
Human stellate cells were treated with TGF-β1 to stimulate expression of α-SMA (smooth muscle action; primary marker for fibrosis) before treatment with the peptide (5 nM; SEQUENCE ID NO. 1). Confocal imaging of the cells was undertaken.

Panx1 [4] = target: T1, Panx1 (Homo sapiens, UniProt Q96RD7); test: Intracellular peptide concentration after PANX1 activation (Caco2); type: cell-based; parameters: endogenous in cells; host or cells: Caco2; conditions: Caco2 cells, before and after channel activation by increased extracellular calcium
Procedure: The peptide of the invention (SEQUENCE ID NO. 1) was added to cells (Caco2). The PANX1 channel was activated in cells by increasing extracellular calcium levels. The intracellular concentration of the peptide was measured before and after activation.

SLC35F2 [5] = target: T2, SLC35F2 (Homo sapiens, UniProt Q8IXU6); test: Retrogenix cell microarray, confirmation on fixed and live cells; type: binding; conditions: for binding / specific interaction with SLC35F2: fixed HEK293 cells, 0.01 and 0.05 μg/ml
T2 construct: individually expressing 5528 full-length human plasma membrane proteins and secreted proteins; host or cells: HEK293 (fixed and live)
T2 sequence (Q8IXU6 1-374): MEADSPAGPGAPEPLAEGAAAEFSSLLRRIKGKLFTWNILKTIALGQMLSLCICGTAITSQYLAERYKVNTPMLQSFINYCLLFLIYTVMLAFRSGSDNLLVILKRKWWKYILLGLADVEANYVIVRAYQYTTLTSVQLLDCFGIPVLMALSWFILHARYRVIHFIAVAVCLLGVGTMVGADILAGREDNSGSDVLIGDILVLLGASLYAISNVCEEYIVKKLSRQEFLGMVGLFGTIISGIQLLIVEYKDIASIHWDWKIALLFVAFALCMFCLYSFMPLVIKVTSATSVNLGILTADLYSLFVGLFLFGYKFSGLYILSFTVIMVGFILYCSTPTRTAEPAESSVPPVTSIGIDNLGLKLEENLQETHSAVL
Procedure: as §1, §2, §3, §4

[6] = target: T3, TACR1 (Substance P receptor) (Homo sapiens, UniProt P25103); test: as above; type: binding; conditions: for binding / specific interaction with TACR1: fixed HEK293 cells, 0.01 and 0.05 μg/ml
T3 construct: individually expressing 5528 full-length human plasma membrane proteins and secreted proteins; host or cells: HEK293 (fixed and live)
Procedure: as §1, §2, §3, §4

[7] = system: human skeletal muscle cells (HSKMC Cells); test: Cell penetration imaging in human skeletal muscle cells; type: cell-based; conditions: 60 mins incubation, CY5 tagged peptide
Procedure: An array of imaging studies was conducted to determine the kinetics and nature of the peptide (SEQUENCE ID NO. 1) interaction with target cell types. These experiments were required to determine if the peptide target was an intra or extra cellular protein. […] Control staining with the unlabelled CY5 dye should no uptake in this cell type.

Panx1 [8] = target: T1, Panx1; test: Ca2+ flux assay and flow cytometry in THP-1 cells; type: cell-based; parameters: endogenous in cells; host or cells: THP-1; conditions: 45 s preincubation with 1 μM peptide, ATP stimulation
Excerpt: FIG. 9A, B and C illustrate downregulation of ATP mediated Ca2+ ions flux by the peptide (SEQUENCE ID NO. 1). ATP treatment of THP-1 cells causes an increase in detection of FITC labelled Ca^2+ ions (A). […] Comparison of FITC fluorescent units detected via flow cytometry, independent of the peptide and in the presence of the peptide (C).
Panx-1 binding with the peptide (SEQUENCE ID NO. 1) was investigated using a Ca^2+ flux assay and flow cytometry. Panx-1 plays an important role in regulating the Ca^2+ ion and ATP balance at the cell membrane. This relationship can be leveraged to monitor the activity of Panx1. Blocking Panx1 should lead to a significant decrease in Ca^2+ flux in the cell, in response to ATP stimulation.
THP-1 cells were incubated with a FITC fluorescent dye for a period of 30 min in order to label intracellular Ca^2+ ions. Cells were then stimulated with ATP to drive calcium flux from the cell, this increase in fluorescence is then detected by flow cytometry. Prior to ATP stimulation, the cells are incubated with 1 μM doses of the peptide in order to investigate if a drop in calcium flux is observed, this drop caused by binding of the peptide to Panx1, thus inhibiting ATP mediated calcium flux.

[9] = system: 5528 full-length human plasma membrane proteins and secreted proteins; test: Retrogenix cell microarray screen on fixed HEK293 cells; type: binding
Procedure: as §1, §2, §3, §4

[10] = target: T4, TACR1 (Substance P receptor) (human, UniProt P25103 1-407); test: cell microarray, CY5-labelled peptide on fixed HEK293 cells expressing human plasma membrane proteins
T4 construct: whole, on cells

SLC35F2 [11] = target: T5, SLC35F2 (human, UniProt Q8IXU6 1-374); test: as above
T5 construct: whole, on cells
T5 sequence (looked up): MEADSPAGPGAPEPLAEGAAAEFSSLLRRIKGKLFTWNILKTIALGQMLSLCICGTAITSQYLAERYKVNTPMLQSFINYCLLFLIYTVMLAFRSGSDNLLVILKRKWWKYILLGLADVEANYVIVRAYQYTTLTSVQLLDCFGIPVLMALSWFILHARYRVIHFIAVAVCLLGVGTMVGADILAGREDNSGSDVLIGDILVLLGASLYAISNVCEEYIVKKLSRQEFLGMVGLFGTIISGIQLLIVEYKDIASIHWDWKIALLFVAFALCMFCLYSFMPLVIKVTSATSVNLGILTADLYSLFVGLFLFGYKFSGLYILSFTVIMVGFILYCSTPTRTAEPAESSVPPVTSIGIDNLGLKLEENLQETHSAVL

T3 sequence (P25103 whole entry): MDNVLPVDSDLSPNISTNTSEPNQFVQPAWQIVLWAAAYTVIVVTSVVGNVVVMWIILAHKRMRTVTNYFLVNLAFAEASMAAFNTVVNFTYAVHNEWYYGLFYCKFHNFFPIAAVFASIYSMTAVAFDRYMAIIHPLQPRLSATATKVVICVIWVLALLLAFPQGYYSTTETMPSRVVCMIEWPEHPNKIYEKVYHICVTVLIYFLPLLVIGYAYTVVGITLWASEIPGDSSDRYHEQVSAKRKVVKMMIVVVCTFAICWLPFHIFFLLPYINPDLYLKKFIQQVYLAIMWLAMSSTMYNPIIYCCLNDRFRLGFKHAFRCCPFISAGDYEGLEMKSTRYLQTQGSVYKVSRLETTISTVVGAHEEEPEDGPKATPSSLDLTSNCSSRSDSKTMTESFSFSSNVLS
PANX1, sequence (Q96RD7 1-400 limits assumed): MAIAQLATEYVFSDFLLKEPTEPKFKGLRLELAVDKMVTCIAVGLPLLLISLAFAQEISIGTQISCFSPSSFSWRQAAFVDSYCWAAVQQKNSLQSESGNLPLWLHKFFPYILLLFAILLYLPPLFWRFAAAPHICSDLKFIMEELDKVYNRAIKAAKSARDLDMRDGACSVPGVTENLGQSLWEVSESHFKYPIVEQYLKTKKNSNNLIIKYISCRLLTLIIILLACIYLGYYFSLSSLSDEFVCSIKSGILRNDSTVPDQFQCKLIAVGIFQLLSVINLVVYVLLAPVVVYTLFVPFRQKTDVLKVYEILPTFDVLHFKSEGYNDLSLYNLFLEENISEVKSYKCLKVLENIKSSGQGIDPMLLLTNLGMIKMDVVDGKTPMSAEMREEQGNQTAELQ
T1 sequence (Q96RD7 whole entry): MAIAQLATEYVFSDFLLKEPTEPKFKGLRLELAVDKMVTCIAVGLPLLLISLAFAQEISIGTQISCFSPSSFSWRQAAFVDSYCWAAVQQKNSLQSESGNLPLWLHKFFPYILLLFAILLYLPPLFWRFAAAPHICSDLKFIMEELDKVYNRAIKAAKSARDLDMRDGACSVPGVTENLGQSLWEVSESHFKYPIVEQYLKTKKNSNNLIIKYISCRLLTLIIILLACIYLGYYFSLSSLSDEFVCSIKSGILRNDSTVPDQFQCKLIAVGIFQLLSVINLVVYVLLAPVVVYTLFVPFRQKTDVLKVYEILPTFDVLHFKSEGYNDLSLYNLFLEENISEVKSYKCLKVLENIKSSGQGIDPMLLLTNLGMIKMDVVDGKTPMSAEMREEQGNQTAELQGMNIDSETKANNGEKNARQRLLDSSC
T4 sequence (P25103 whole entry): as the sequence (P25103 whole entry) above

In the case of `CCNC(=O)[C@@H]1CCCN1C(=O)[C@H](CCCNC(=N)N)NC(=O)[C@H](CC(C)C)NC(=O)[C@@H](COC(C)(C)C)NC(=O)[C@H](Cc1ccc(O)cc1)NC(=O)[C@H](CO)NC(=O)[C@H](Cc1c[nH]c2ccccc12)NC(=O)[C@H](Cc1cnc[nH]1)NC(=O)[C@@H]1CCC(=O)N1` [buserelin], the half-life ([1]; in humans, in words) is given as “much longer half-life”.

For `NC(=O)CC[C@@H]1NC(=O)[C@H](Cc2ccccc2)NC(=O)[C@H](Cc2ccc(O)cc2)NC(=O)CCSSC[C@@H](C(=O)N2CCC[C@H]2C(=O)N[C@H](CCCN=C(N)N)C(=O)NCC(N)=O)NC(=O)[C@H](CC(N)=O)NC1=O` [desmopressin], the half-life ([1]; human, in vivo) is given as 3.7 h.

In the case of `C[C@@H](O)[C@@H]1NC(=O)[C@H](CCCCN)NC(=O)[C@@H](Cc2c[nH]c3ccccc23)NC(=O)[C@H](Cc2ccccc2)NC(=O)[C@@H](NC(=O)[C@H](N)Cc2ccccc2)CSSC[C@@H](C(=O)N[C@H](CO)[C@@H](C)O)NC1=O` [octreotide], the half-life ([1]; in humans) is listed as “about 100 min”, the fraction unbound (lipoproteins) is listed as 0.65 and the “plasma half life time” value [2] is listed as 1.5 h.

For `NC(=O)CC[C@@H]1NC(=O)[C@H](Cc2ccccc2)NC(=O)[C@H](Cc2ccc(O)cc2)NC(=O)[C@@H](N)CSSC[C@@H](C(=O)N2CCC[C@H]2C(=O)N[C@@H](CCCN=C(N)N)C(=O)NCC(N)=O)NC(=O)[C@H](CC(N)=O)NC1=O` [vasopressin], the half-life ([1]; in humans) is given as 0.167 to 0.583 h.

With WKDEAGKPLVK [SEQUENCE ID NO. 1] the “secretion of IL-8” value (IL-8) was “reduces the secretion of IL-8”, the “binding / specific interaction with PANX1” value (PANX1 [3]) was “Highly Selective Targets” and the “anti-fibrotic activity compared with Elafibranor” value (α-SMA; equivalent molar doses) was “outperformed Elafibranor”. For the same molecule, the α-SMA expression (α-SMA; human stellate cells treated with TGF-β1, peptide 5 nM, confocal imaging) was “decrease in α-SMA expression”, the “intracellular concentration of the peptide” value (Panx1 [4]) was “increased when the channel is activated” and the “binding / specific interaction with SLC35F2” value (SLC35F2 [5]) was “Highly Selective Targets”. For the same molecule, the “binding / specific interaction with TACR1” value [6] was “Highly Selective Targets”, the intracellular accumulation [7] was “significant intracellular accumulation” and the “ATP mediated Ca2+ ion flux” value (Panx1 [8]) was “blocks ATP mediated Ca^2+ ion flux”.

For “pep_HTWCFL: the CY5 labelled version of SEQUENCE ID NO. 1 (WKDEAGKPLVK; also: Cy5 label, position not given here)”, the “primary hits in initial screening” value ([9]; 0.01 μg/ml test peptide on fixed cells for 30 minutes) was 43, the “specific interactions for the test peptide after re-expression of primary hits” value ([9]; re-tested with 0.01 μg/ml and 0.05 μg/ml test peptide, fixed cells) was “Nine” and the “binding / specific interaction with PANX1” value (PANX1 [3]) was “specific interactions”. The signal to background (PANX1 [3]; fixed cells) was “greatest signal to background”, the “binding signal on live cells” value (PANX1 [3]; live cell microarray) was “lack of signals seen on live cells” and the “binding / specific interaction with SLC35F2” value (SLC35F2 [5]) was “specific interactions”. For the same molecule, the “specific interaction with SLC35F2” value (SLC35F2 [5]; live cell microarray) was “specific interactions”, the “binding / specific interaction with TACR1” value [6] was “specific interactions” and the “specific interaction with TACR1” value ([6]; live cell microarray) was “specific interactions”.

B1: CY5-labelled peptide (pep_HTWCFL, the CY5 labelled version of SEQUENCE ID NO. 1) (peptide)
peptide: WKDEAGKPLVK-Cy5
notes: also called test peptide; C-terminal CY5 Tagged peptide
B1: binds [10]; binds (SLC35F2 [11]).
